Assay results published in patent publication US20240239752A1, “BICYCLIC HETEROAROMATIC INHIBITORS OF KLK5” (BioCryst Pharmaceuticals, Inc., priority 2021, published 2024).

Target: T1, recombinant human KLK5 (Homo sapiens, UniProt Q9Y337)
T1 construct: purchased Novoprotein or R&D Systems C415 or 1108-SE
T1 sequence (Q9Y337 23-293): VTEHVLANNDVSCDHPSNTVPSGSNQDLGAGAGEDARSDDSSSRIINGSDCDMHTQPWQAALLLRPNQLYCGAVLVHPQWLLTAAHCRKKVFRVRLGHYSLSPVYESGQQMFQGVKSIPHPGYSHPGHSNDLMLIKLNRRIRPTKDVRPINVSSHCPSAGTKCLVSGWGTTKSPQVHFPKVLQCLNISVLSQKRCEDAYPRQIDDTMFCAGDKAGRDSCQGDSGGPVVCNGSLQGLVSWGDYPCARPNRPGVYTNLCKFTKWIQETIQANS
Test: Kallikrein (KLK) 5 enzymatic assay (Boc-VPR-AMC fluorogenic substrate)
Format: biochemical
Conditions: recombinant human KLK5 0.1 μg/well, Boc-VPR-AMC 100 μM, pH 7.5, room temperature, 1% DMSO; tested a minimum of three times
Procedure, shortened: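 Fluorogenic rate assay at pH 7.5 (0.1 M NaH2PO4, 1% DMSO, room temperature), run at least three times per compound. Compound was premixed with 0.1 μg/well recombinant human KLK5 before adding 100 μM Boc-VPR-AMC; AMC release was read at ex 380/em 460 nm, and IC50 derived from inhibition of rate vs DMSO control.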

Structure (SMILES)	IC50
CCC(=O)N1CCC2(CC1)CC(Oc1cccc(C)c1CC(=O)O)c1cc(-c3ccc4ccnc(N)c4c3)ccc12 (stereo not drawn) [Compound 388b, 2-(2-((5-(1-aminoisoquinolin-7-yl)-1′-propionyl-2,3-dihydrospiro[indene-1,4′-piperidin]-3-yl)oxy)-6-methylphenyl)acetic acid]	< 1000 nM
CC(C)COC(=O)N1CCC2(CC1)CC(Oc1ccccc1CC(=O)O)c1cc(-c3ccc4ccnc(N)c4c3)ccc12 (stereo not drawn) [Compound 389c, 2-(2-((5-(1-aminoisoquinolin-7-yl)-1′-(isobutoxycarbonyl)-2,3-dihydrospiro[indene-1,4′-piperidin]-3-yl)oxy)phenyl)acetic acid]	< 1000 nM
CC(C)COC(=O)N1CCC2(CC1)CC(Oc1ccccc1CC(=O)O)c1cc(-c3cccc4c(N)nccc34)ccc12 (stereo not drawn) [Compound 390b, 2-(2-((5-(1-aminoisoquinolin-5-yl)-1′-(isobutoxycarbonyl)-2,3-dihydrospiro[indene-1,4′-piperidin]-3-yl)oxy)phenyl)acetic acid]	< 1000 nM
Nc1nccc2ccc(-c3ccc4c(c3)C(Oc3ccccc3CC(=O)O)CC43CCCCC3)cc12 (stereo not drawn) [Compound 391b, 2-(2-((5′-(1-aminoisoquinolin-7-yl)-2′,3′-dihydrospiro[cyclohexane-1,1′-inden]-3′-yl)oxy)phenyl)acetic acid]	< 1000 nM
CC(C)(C)OC(=O)N1CCC2(CC1)C[C@H](Oc1ccccc1CC(=O)O)c1cc(-c3cccc4c(N)nccc34)ccc12 [Compound 392f, (S)-2-(2-((5-(1-aminoisoquinolin-5-yl)-1′-(tert-butoxycarbonyl)-2,3-dihydrospiro[indene-1,4′-piperidin]-3-yl)oxy)phenyl)acetic acid]	< 1000 nM
CC(C)(C)OC(=O)N1CCC2(CC1)C[C@H](Oc1ccccc1CC(=O)O)c1cc(-c3ccc4ccnc(N)c4c3)ccc12 [Compound 393b, (S)-2-(2-((5-(1-aminoisoquinolin-7-yl)-1′-(tert-butoxycarbonyl)-2,3-dihydrospiro[indene-1,4′-piperidin]-3-yl)oxy)phenyl)acetic acid]	< 1000 nM
CC(C)(C)OC(=O)N1CCC2(CC1)C[C@@H](Oc1ccccc1CC(=O)O)c1cc(-c3cccc4c(N)nccc34)ccc12 [Compound 394e, (R)-2-(2-((5-(1-aminoisoquinolin-5-yl)-1′-(tert-butoxycarbonyl)-2,3-dihydrospiro[indene-1,4′-piperidin]-3-yl)oxy)phenyl)acetic acid]	< 1000 nM
CC(C)(C)OC(=O)N1CCC2(CC1)C[C@@H](Oc1ccccc1CC(=O)O)c1cc(-c3ccc4ccnc(N)c4c3)ccc12 [Compound 395b, (R)-2-(2-((5-(1-aminoisoquinolin-7-yl)-1′-(tert-butoxycarbonyl)-2,3-dihydrospiro[indene-1,4′-piperidin]-3-yl)oxy)phenyl)acetic acid]	< 1000 nM
COC(=O)N1CCC2(CC1)C[C@H](Oc1ccccc1CC(=O)O)c1cc(-c3cccc4c(N)nccc34)ccc12 [Compound 396d, (S)-2-(2-((5-(1-aminoisoquinolin-5-yl)-1′-(methoxycarbonyl)-2,3-dihydrospiro[indene-1,4′-piperidin]-3-yl)oxy)phenyl)acetic acid]	< 1000 nM
COC(=O)N1CCC2(CC1)C[C@H](Oc1ccccc1CC(=O)O)c1cc(-c3ccc4ccnc(N)c4c3)ccc12 [Compound 397b, (S)-2-(2-((5-(1-aminoisoquinolin-7-yl)-1′-(methoxycarbonyl)-2,3-dihydrospiro[indene-1,4′-piperidin]-3-yl)oxy)phenyl)acetic acid]	< 1000 nM
COC(=O)N1CCC2(CC1)C[C@@H](Oc1ccccc1CC(=O)O)c1cc(-c3cccc4c(N)nccc34)ccc12 [Compound 398d, (R)-2-(2-((5-(1-aminoisoquinolin-5-yl)-1′-(methoxycarbonyl)-2,3-dihydrospiro[indene-1,4′-piperidin]-3-yl)oxy)phenyl)acetic acid]	< 1000 nM
COC(=O)N1CCC2(CC1)C[C@@H](Oc1ccccc1CC(=O)O)c1cc(-c3ccc4ccnc(N)c4c3)ccc12 [Compound 399b, (R)-2-(2-((5-(1-aminoisoquinolin-7-yl)-1′-(methoxycarbonyl)-2,3-dihydrospiro[indene-1,4′-piperidin]-3-yl)oxy)phenyl)acetic acid]	< 1000 nM
Nc1nccc2c(-c3ccc4c(c3)C(COc3ccccc3CC(=O)O)=CC43CCCC3)cccc12 [Compound 400f, 2-(2-((5′-(1-aminoisoquinolin-5-yl)spiro[cyclopentane-1,1′-inden]-3′-yl)methoxy)phenyl)acetic acid]	< 1000 nM
Nc1nccc2ccc(-c3ccc4c(c3)C(COc3ccccc3CC(=O)O)=CC43CCCC3)cc12 [Compound 401b, 2-(2-((5′-(1-aminoisoquinolin-7-yl)spiro[cyclopentane-1,1′-inden]-3′-yl)methoxy)phenyl)acetic acid]	< 1000 nM
Nc1nccc2ccc(-c3ccc4c(c3)C(COc3ccccc3CC(=O)O)CC43CCCC3)cc12 (stereo not drawn) [Compound 402a, 2-(2-((5′-(1-aminoisoquinolin-7-yl)-2′,3′-dihydrospiro[cyclopentane-1,1′-inden]-3′-yl)methoxy)phenyl)acetic acid]	1000 to 10000 nM
Nc1nccc2c(-c3ccc4c(c3)C(COc3ccccc3CC(=O)O)CC43CCCC3)cccc12 (stereo not drawn) [Compound 403a, 2-(2-((5′-(1-aminoisoquinolin-5-yl)-2′,3′-dihydrospiro[cyclopentane-1,1′-inden]-3′-yl)methoxy)phenyl)acetic acid]	< 1000 nM
CCOC(=O)N1CCC2(CC1)CC(Oc1cccc(C)c1CC(=O)O)c1cc(-c3ccc4ccnc(N)c4c3)ccc12 (stereo not drawn) [Compound 404c, 2-(2-((5-(1-aminoisoquinolin-7-yl)-1′-(ethoxycarbonyl)-2,3-dihydrospiro[indene-1,4′-piperidin]-3-yl)oxy)-6-methylphenyl)acetic acid]	< 1000 nM
CCOC(=O)N1CCC2(CC1)CC(Oc1cccc(C)c1CC(=O)O)c1cc(-c3cccc4c(N)nccc34)ccc12 (stereo not drawn) [Compound 405b, 2-(2-((5-(1-aminoisoquinolin-5-yl)-1′-(ethoxycarbonyl)-2,3-dihydrospiro[indene-1,4′-piperidin]-3-yl)oxy)-6-methylphenyl)acetic acid]	< 1000 nM
CC(=O)N1CCC2(CC1)CC(Oc1cccc(C)c1CC(=O)O)c1cc(-c3ccc4ccnc(N)c4c3)ccc12 (stereo not drawn) [Compound 406c, 2-(2-((1′-acetyl-5-(1-aminoisoquinolin-7-yl)-2,3-dihydrospiro[indene-1,4′-piperidin]-3-yl)oxy)-6-methylphenyl)acetic acid]	< 1000 nM
CC(=O)N1CCC2(CC1)CC(Oc1cccc(C)c1CC(=O)O)c1cc(-c3cccc4c(N)nccc34)ccc12 (stereo not drawn) [Compound 407b, 2-(2-((1′-acetyl-5-(1-aminoisoquinolin-5-yl)-2,3-dihydrospiro[indene-1,4′-piperidin]-3-yl)oxy)-6-methylphenyl)acetic acid]	< 1000 nM
COC(=O)N1CCC2(CC1)CC(Oc1cc(F)ccc1CC(=O)O)c1cc(-c3ccc4ccnc(N)c4c3)ccc12 (stereo not drawn) [Compound 408f, 2-(2-((5-(1-aminoisoquinolin-7-yl)-1′-(methoxycarbonyl)-2,3-dihydrospiro[indene-1,4′-piperidin]-3-yl)oxy)-4-fluorophenyl)acetic acid]	< 1000 nM
COC(=O)N1CCC2(CC1)CC(Oc1cc(F)ccc1CC(=O)O)c1cc(-c3cccc4c(N)nccc34)ccc12 (stereo not drawn) [Compound 409b, 2-(2-((5-(1-aminoisoquinolin-5-yl)-1′-(methoxycarbonyl)-2,3-dihydrospiro[indene-1,4′-piperidin]-3-yl)oxy)-4-fluorophenyl)acetic acid]	< 1000 nM
COC(=O)N1CCC2(CC1)CC(Oc1cc(C#N)ccc1CC(=O)O)c1cc(-c3ccc4ccnc(N)c4c3)ccc12 (stereo not drawn) [Compound 410d, 2-(2-((5-(1-aminoisoquinolin-7-yl)-1′-(methoxycarbonyl)-2,3-dihydrospiro[indene-1,4′-piperidin]-3-yl)oxy)-4-cyanophenyl)acetic acid]	< 1000 nM
COC(=O)N1CCC2(CC1)CC(Oc1cc(C#N)ccc1CC(=O)O)c1cc(-c3cccc4c(N)nccc34)ccc12 (stereo not drawn) [Compound 411b, 2-(2-((5-(1-aminoisoquinolin-5-yl)-1′-(methoxycarbonyl)-2,3-dihydrospiro[indene-1,4′-piperidin]-3-yl)oxy)-4-cyanophenyl)acetic acid]	< 1000 nM
COC(=O)N1CCC2(CC1)CC(Oc1cc(C)ccc1CC(=O)O)c1cc(-c3ccc4ccnc(N)c4c3)ccc12 (stereo not drawn) [Compound 412c, 2-(2-((5-(1-aminoisoquinolin-7-yl)-1′-(methoxycarbonyl)-2,3-dihydrospiro[indene-1,4′-piperidin]-3-yl)oxy)-4-methylphenyl)acetic acid]	< 1000 nM
COC(=O)N1CCC2(CC1)CC(Oc1cc(C)ccc1CC(=O)O)c1cc(-c3cccc4c(N)nccc34)ccc12 (stereo not drawn) [Compound 413b, 2-(2-((5-(1-aminoisoquinolin-5-yl)-1′-(methoxycarbonyl)-2,3-dihydrospiro[indene-1,4′-piperidin]-3-yl)oxy)-4-methylphenyl)acetic acid]	< 1000 nM
Nc1nccc2ccc(-c3ccc4c(c3)[C@H](Oc3ccccc3CC(=O)O)CC43CCN(CC(=O)O)CC3)cc12 [Compound 414c, (R)-2-(2-((5-(1-aminoisoquinolin-7-yl)-1′-(carboxymethyl)-2,3-dihydrospiro[indene-1,4′-piperidin]-3-yl)oxy)phenyl)acetic acid]	< 1000 nM
